Test results taken from publication PMC7956625, “Optimization and Anti-Cancer Properties of Fluoromethylketones as Covalent Inhibitors for Ubiquitin C-Terminal Hydrolase L1” (Molecules, 2021).
Where a SMILES comes first, the peptide text is derived from it. [ ]: non-standard residue; d: D form. The star is where a group is joined. Cbz = O=C(OCc1ccccc1)*; CH2Cl = ClC*; CH2F = FC*

What was measured:
UCHL1 [1] = target: T1, UCHL1 (Homo sapiens, UniProt P09936); experiment: Fluorescence-based Ub-Rho deubiquitinase activity assay; assay type: biochemical; design: made in house; conditions: for IC50: 3 h of preincubation with UCHL1, technical triplicate, averages, read-out: IC50; for in vitro activity against UCHL1: up to 200 µM
T1 sequence (P09936 1-223): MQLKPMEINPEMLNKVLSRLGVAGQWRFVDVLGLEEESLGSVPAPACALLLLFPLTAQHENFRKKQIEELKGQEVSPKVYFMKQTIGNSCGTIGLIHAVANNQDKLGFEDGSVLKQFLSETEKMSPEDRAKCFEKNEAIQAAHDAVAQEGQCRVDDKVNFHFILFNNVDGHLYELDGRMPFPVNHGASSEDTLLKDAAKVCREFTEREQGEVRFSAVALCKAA
Protocol: Thus, a 3-h preincubation period was selected for the structure-activity relationship (SAR) comparison of all analogs to ensure full reaction time and for consistent comparison of activity against UCHL1 within the scaffold. […] A 10 mM stock solution was made for each inhibitor in DMSO, then a dilution of 600 µM in reaction buffer was made followed eight by 1:1 serial dilutions. […] These were allowed to incubate, while sealed, for the 3 h at room temperature. […] The % activity was plotted as a function of inhibitor concentration and the data was fitted with non-linear regression analysis to calculate the IC50 values. Errors are reported as the 95% confidence interval calculated from experiments collected in technical triplicate.

UCHL1 [2] = target: T1, UCHL1; experiment: Time-dependent inhibitor analysis (kinact/KI); assay type: biochemical; design: made in house
Protocol: Irreversible covalent inhibitors may be further characterized by determining the reversible binding constant (KI) as well as the rate of the covalent bond formation under saturating conditions (kinact). By determining the IC50 over the course of various timepoints, the pseudo first-order rate constant (kobs) could be calculated. […] The % activity of each inhibitor concentration was the plotted vs. time of pre-incubation and the slope of this plot is the pseudo first-order rate constant (kobs) for inhibition at each concentration. The kobs was plotted as a function of inhibitor concentration and then fit to the equation Y = kinactX/(KI + X) to calculate kinact, KI and kinact/KI as described by Resnick et al..

UCHL1 [3] = target: T1, UCHL1; experiment: Fluorescence-based Ub-Rho deubiquitinase activity assay; assay type: biochemical; design: made in house; conditions: even after 6 h of incubation with the enzyme
UCHL1 [4] = target: T1, UCHL1; design: made in house; conditions: previous studies; cited from earlier work
[5] = SW1271 cell viability assay; assay type: cell-based; conditions: human, SW1271 small cell lung cancer cells (luciferase-constructed), SW1271 cells
Protocol: UCHL1 is a key promoter of cell invasion and metastasis in small cell lung cancer but not necessarily required for cell viability or proliferation. Thus, we chose to assess the efficacy of targeting UCHL1 using the SW1271 small cell lung cancer cell line. […] The Ub-ABP assay was used to confirm on target engagement of UCHL1 within these cells.
Luciferase-constructed cancer cells were seeded in 96-well plates at 10,000 cells/well with the compounds at the indicated concentrations. DMSO was used as vehicle control. Luminescence readings were acquired after adding 1% D-luciferin (GoldBio, St. Louis, MO, USA) after 24 h. Cell viability was determined by the ratio of luminescence reading compared to the one at 0 h, and normalized to vehicle control.

SW1271 cells = experiment: Click reaction and in-gel fluorescence of treated SW1271 cells; assay type: cell-based; conditions: 100 µM, 4 h
Protocol: Leveraging the alkyne handle, a click reaction was performed with an azide containing sulfo-cyanine5 fluorophore (Cy5) to visualize proteins within the cells that were conjugated to either the fluoromethylketone 34 or the chloromethylketone 37. Cells were pretreated with either analog then harvested and washed to removed unreacted inhibitor. The cells were then lysed and the click reaction was performed on lysates. […] Further evaluation using proteomic profiling is warranted to gain a quantitative understanding on the potential for non-specificity at off-target cysteines.
Cells were treated with 100 µM inhibitor or DMSO for 4 h before being washed, scraped, and lysed in 200 µL of lysis buffer (1× PBS, 1% v/v Triton X-100, 0.1% w/v SDS, 1X HALT) for 30 min on ice with vigorous vortexing every 10 min. Samples were then pelleted at 17,000× g for 10 min before collecting the supernatant and measuring concentration using BCA. Samples were normalized to 2 mg/mL and stored at −80 °C overnight. The following day, samples were thawed. While thawing, a click cocktail was prepared (for each sample, the cocktail consists of: 3 µL of 1.7 mM THPTA in 1:4 tBuOH/DMSO, 1 µL of 50 mM CuSO4 in water, 1 µL of 1.25 mM Cy5-N3 in DMSO, and 1 µL of 50 mM TCEP in water freshly prepared). […] The samples were then analyzed by SDS-PAGE and imaged on a Licor Odyssey and subsequently Coomassie stained.

KMS-12 cell lines = system: KMS-12 cell lines; design: method as in PMID 31449350; conditions: cells do not express UCHL1; cited from earlier work
[6] = IC50 comparison, 3 h preincubation

COC(=O)CC[C@H](NC(=O)[C@H](C)NC(=O)[C@H](Cc1ccccc1)NC(=O)OCc1ccccc1)C(=O)CF [Cpd 21, Cbz-L-Phe-L-Ala-L-Glu(OMe)-fluoromethylketone] (Cbz-Phe-Ala-Glu(OMe)-CH2F)
IC50 (UCHL1 [1]): 13 µM

C#Cc1ccc(COC(=O)N[C@@H](Cc2ccccc2)C(=O)N[C@@H](C)C(=O)N[C@@H](CCC(=O)OC)C(=O)CF)cc1 [Cpd 36]
IC50 (UCHL1 [1]): 11 µM | fold more active than 1 versus UCHL1 (UCHL1 [1]; [6]): 2 fold | kinact/KI (UCHL1 [2]; Table 3 and text, read-out: kinact/KI): 208 M⁻¹ s⁻¹ | kinact (UCHL1 [2]; read-out: kinact): 0.0157 s⁻¹ | Ki (UCHL1 [2]; reversible binding constant of covalent inhibition, read-out: KI): 75.3 µM

COC(=O)CC[C@H](NC(=O)[C@H](CCC(=O)O)NC(=O)[C@@H](NC(=O)OCc1ccccc1)C(C)C)C(=O)CF [Cpd 33] (Cbz-Val-Glu-Glu(OMe)-CH2F)
IC50 (UCHL1 [1]): > 200 µM

COC(=O)CC[C@H](NC(=O)[C@H](C)NC(=O)CNC(=O)OCc1ccccc1)C(=O)CF [Cpd 18] (Cbz-Gly-Ala-Glu(OMe)-CH2F)
IC50 (UCHL1 [1]): > 200 µM | in vitro activity against UCHL1 (UCHL1 [1]): complete abrogation of activity

COC(=O)CC[C@H](NC(=O)[C@H](CC(N)=O)NC(=O)[C@@H](NC(=O)OCc1ccccc1)C(C)C)C(=O)CF [Cpd 31] (Cbz-Val-Asn-Glu(OMe)-CH2F)
IC50 (UCHL1 [1]): > 200 µM

COC(=O)CC[C@H](NC(=O)CNC(=O)[C@@H](NC(=O)OCc1ccccc1)C(C)C)C(=O)CF [Cpd 15] (Cbz-Val-Gly-Glu(OMe)-CH2F)
IC50 (UCHL1 [1]): 95 µM

CC(C)[C@H](NC(=O)OCc1ccccc1)C(=O)NCC(=O)N[C@@H](CCC(=O)O)C(=O)CF [Cpd 16] (Cbz-Val-Gly-Glu-CH2F)
in vitro activity against UCHL1 (UCHL1 [3]): complete abrogation of activity | IC50 (UCHL1 [1]): > 200 µM

COC(=O)C[C@H](NC(=O)[C@H](C)NC(=O)[C@@H](NC(=O)OCc1ccccc1)C(C)C)C(=O)CF [VADFMK] (Cbz-Val-Ala-Asp(OMe)-CH2F)
activity against UCHL1 (UCHL1 [4]): inactive

C#Cc1ccc(COC(=O)N[C@H](C(=O)N[C@@H](C)C(=O)N[C@@H](CCC(=O)OC)C(=O)CCl)C(C)C)cc1 [Cpd 37]
CC50 at 24 h [5]: 0.176 µM | IC50 (UCHL1 [1]): > 200 µM | in vitro activity against UCHL1 (UCHL1 [1]): inactive | proteins labelled in SW1271 cells (Cy5 click, in-gel fluorescence) (SW1271 cells): non-specifically label multiple proteins within the cell

COC(=O)CC[C@H](NC(=O)[C@H](C)NC(=O)[C@H](NC(=O)OCc1ccccc1)C(C)C)C(=O)CF [Cpd 17] (Cbz-[dV]-Ala-Glu(OMe)-CH2F)
IC50 (UCHL1 [1]): > 200 µM | in vitro activity against UCHL1 (UCHL1 [1]): complete loss of activity

COC(=O)CC[C@H](NC(=O)[C@H](C)NC(=O)[C@H](CC(C)C)NC(=O)OCc1ccccc1)C(=O)CF [Cpd 20] (Cbz-Leu-Ala-Glu(OMe)-CH2F)
IC50 (UCHL1 [1]): 23 µM

COC(=O)CC[C@H](NC(=O)[C@H](CC(C)C)NC(=O)[C@@H](NC(=O)OCc1ccccc1)C(C)C)C(=O)CF [Cpd 27] (Cbz-Val-Leu-Glu(OMe)-CH2F)
IC50 (UCHL1 [1]): > 200 µM

COC(=O)CC[C@H](NC(=O)[C@H](Cc1ccccc1)NC(=O)[C@@H](NC(=O)OCc1ccccc1)C(C)C)C(=O)CF [Cpd 28] (Cbz-Val-Phe-Glu(OMe)-CH2F)
IC50 (UCHL1 [1]): > 200 µM

COC(=O)CC[C@H](NC(=O)[C@@H](NC(=O)[C@@H](NC(=O)OCc1ccccc1)C(C)C)[C@@H](C)O)C(=O)CF [Cpd 30] (Cbz-Val-Thr-Glu(OMe)-CH2F)
IC50 (UCHL1 [1]): > 200 µM

COC(=O)CC[C@H](NC(=O)[C@H](C)NC(=O)[C@@H](NC(=O)OCc1ccccc1)[C@@H](C)O)C(=O)CF [Cpd 23] (Cbz-Thr-Ala-Glu(OMe)-CH2F)
IC50 (UCHL1 [1]): 100 µM

COC(=O)CC[C@H](NC(=O)[C@H](C)NC(=O)[C@H](CO)NC(=O)OCc1ccccc1)C(=O)CF [Cpd 22] (Cbz-Ser-Ala-Glu(OMe)-CH2F)
IC50 (UCHL1 [1]): 185 µM

COC(=O)CC[C@H](NC(=O)[C@H](CC(=O)O)NC(=O)[C@@H](NC(=O)OCc1ccccc1)C(C)C)C(=O)CF [Cpd 32] (Cbz-Val-Asp-Glu(OMe)-CH2F)
IC50 (UCHL1 [1]): > 200 µM

COC(=O)CC[C@H](NC(=O)[C@H](C)NC(=O)[C@H](CC(=O)O)NC(=O)OCc1ccccc1)C(=O)CF [Cpd 25] (Cbz-Asp-Ala-Glu(OMe)-CH2F)
IC50 (UCHL1 [1]): > 200 µM

C#Cc1ccc(COC(=O)N[C@H](C(=O)NCC(=O)N[C@@H](CCC(=O)OC)C(=O)CF)C(C)C)cc1 [Cpd 35]
IC50 (UCHL1 [1]): 62 µM | fold more active than non-alkyne analog 15 (UCHL1 [1]; [6]): about 1.5 fold

COC(=O)CC[C@H](NC(=O)[C@H](C)NC(=O)[C@H](C)NC(=O)OCc1ccccc1)C(=O)CF [Cpd 19] (Cbz-Ala-Ala-Glu(OMe)-CH2F)
IC50 (UCHL1 [1]): 76 µM | fold less effective than parent compound 1 (UCHL1 [1]; [6]): 3 fold

N#CN1CCC[C@H]1C(=O)N1CCc2c(-c3cn[nH]c3C(F)(F)F)cccc21 [MT-19]
anti-proliferative properties in KMS-12 cell lines (KMS-12 cell lines): anti-proliferative properties

COC(=O)CC[C@H](NC(=O)[C@H](C)NC(=O)[C@H](CC(N)=O)NC(=O)OCc1ccccc1)C(=O)CF [Cpd 24] (Cbz-Asn-Ala-Glu(OMe)-CH2F)
IC50 (UCHL1 [1]): 119 µM

COC(=O)CC[C@H](NC(=O)[C@@H](C)NC(=O)[C@@H](NC(=O)OCc1ccccc1)C(C)C)C(=O)CF [Cpd 26] (Cbz-Val-[dA]-Glu(OMe)-CH2F)
IC50 (UCHL1 [1]): > 200 µM | in vitro activity against UCHL1 (UCHL1 [1]): loss of activity

COC(=O)CC[C@H](NC(=O)[C@H](CO)NC(=O)[C@@H](NC(=O)OCc1ccccc1)C(C)C)C(=O)CF [Cpd 29] (Cbz-Val-Ser-Glu(OMe)-CH2F)
IC50 (UCHL1 [1]): 100 µM

COC(=O)CC[C@H](NC(=O)[C@H](C)NC(=O)[C@@H](NC(=O)OCc1ccccc1)C(C)C)C(=O)CCl [Cpd 14] (Cbz-Val-Ala-Glu(OMe)-CH2Cl)
CC50 at 24 h [5]: 0.156 µM | IC50 (UCHL1 [1]): > 200 µM | in vitro activity against UCHL1 (UCHL1 [1]): complete loss of in vitro activity
